Reference: patent US4174404A, “Deoxynarasin antibiotics” (Eli Lilly and Company, priority 1978, dated 1979)
In brackets after ≈: the same amount, converted by molar mass. Where a name gives a salt, the structure may show the parent alone.

Legend:
[1] = molecular target: cation transport ATPase in liver mitochondria; assay: in vitro ATPase inhibition; assay type: biochemical
Source text: In yet another aspect, 20-deoxynarasin and its salts are active as an inhibitor of the enzyme ATPase. ATPase, an alkali-metal-sensitive enzyme found in cell membranes, is involved in the energy necessary for active transport. "Active transport" refers to the energy-requiring series of operations whereby intracellular and extracellular fluids maintain their compositions. Inhibitors of ATPase reduce the energy required for active transport. In vitro tests have shown that 20-deoxynarasin (Na salt) inhibits cation transport ATPase in liver mitochondria at a half effective concentration of 0.065 mcg/ml.

[2] = tested on: isolated guinea-pig atria; assay: isolated guinea-pig atria contractility; assay type: cell-based; conditions: Cavia porcellus; 10^-5 molar; percentage of maximal contractile tension elicited by norepinephrine challenge; n=4; read-out: mean (± standard error) increase in contractile tension
Source text: 20-Deoxynarasin and its salts are also potential cardiotonic agents. In tests using isolated guinea-pig atria, for example, 20-deoxynarasin increased cardiac contractility. Response to this test is expressed as a percentage of the maximal contractile tension that could be elicited by a challenge dose of norepinephrine (10^-4)M). 20-Deoxynarasin (Na salt), at a 10^-5 molar concentration, produced a mean (± standard error) increase in contractile tension of 43.8±1.4 (n=4) percent. For a more detailed description of this test, see U.S. Pat. No. 3,985,893.

[3] = tested on: mice; assay: acute toxicity, intraperitoneal, mice; assay type: in vivo; conditions: intraperitoneally to mice
[4] = tested on: Eimeria tenella; assay: in vitro anticoccidial activity; assay type: cell-based
Source text: Anticoccidial activity is an important property of the deoxynarasin antibiotics of this invention.

[5] = tested on: Eimeria tenella; assay: feeding experiment in young chickens challenged with Eimeria tenella; assay type: in vivo; conditions: 100 ppm in the diet, chicks challenged with Eimeria tenella, Na salt
Source text: A feeding experiment in young chickens confirms that the deoxynarasin antibiotics have anticoccidial activity in vivo.

[6] = solubility; assay type: physicochemical; conditions: for solubility in nonpolar organic solvents: nonpolar organic solvents such as hexane; for solubility in organic solvents: organic solvents (methanol, ethanol, dimethylformamide, dimethyl sulfoxide, ethyl acetate, chloroform, acetone, benzene)
Source text: The deoxynarasin antibiotic complex comprises 20-deoxynarasin and 20-deoxy-epi-17-narasin which are obtained from the fermentation as a mixture. 20-Deoxynarasin and 20-deoxy-epi-17-narasin are separated from the deoxynarasin complex and isolated as individual compounds as hereinafter described. The deoxynarasin complex also contains minor factors which are removed by the procedures described. The deoxynarasin antibiotic complex is soluble in most organic solvents, but is insoluble in water.
(§1) For example, 20-deoxynarasin acid (435.1 mg) was dissolved in methanol (40 ml) and allowed to stand at room temperature for four hours. The solution was then evaporated to dryness under vacuum; the residue was redissolved in dioxane and lyophilized to give 417.8 mg of 20-deoxy-epi-17-narasin acid.

[7] = tested on: rumen flora; assay: in vitro rumen volatile-fatty-acid (VFA) test; design: species or system ruminants
Source text: As discussed, efficiency of carbohydrate utilization in ruminants is increased by treatments which stimulate the animal's rumen flora to produce propionate compounds rather than acetate or butyrate compounds. The efficiency of feed use can be monitored by observing the production and concentration of propionate compounds in rumen fluid, using methods as described in U.S. Pat. No. 4,038,384.
Results of in vitro tests with 20-deoxynarasin (Na salt) and 20-deoxy-epi-17-narasin (free acid), showing the ratio of volatile-fatty-acid (VFA) concentrations in treated flasks to concentrations in control flasks, are shown in Table VIII.

[8] = stability in alcohols; assay type: physicochemical; conditions: converts to 20-deoxy-epi-17-narasin free acid (methanol, room temperature, four hours)
Description: as §1

[9] = tested on: Streptococcus pyogenes (Group A); assay: disc-diffusion method, zone of inhibition; assay type: cell-based
Source text: (§2) The deoxynarasin antibiotics of this invention are antibacterial agents. For example, the relative microbiological activity of 20-deoxy-epi-17-narasin (free acid) is described in Table IV. The conventional disc-diffusion method was used.

[10] = tested on: Staphylococcus aureus 3130 (Methicillin Resistant); assay: disc-diffusion method, zone of inhibition; assay type: cell-based
Source text: as §2

[11] = tested on: Staphlococcus aureus 3055; assay: disc-diffusion method, zone of inhibition; assay type: cell-based
Source text: as §2

[12] = tested on: Streptococcus sp. (Group D); assay: disc-diffusion method, zone of inhibition; assay type: cell-based
Source text: as §2

[13] = tested on: Diplococcus pneumoniae; assay: disc-diffusion method, zone of inhibition; assay type: cell-based; conditions: Streptococcus pneumoniae
Source text: as §2

[14] = tested on: Staphylococcus aureus 3074 (Penicillin G Resistant); assay: disc-diffusion method, zone of inhibition; assay type: cell-based
Source text: as §2

[15] = tested on: M. gallisepticum; assay: in vitro broth-dilution MIC, Mycoplasma; assay type: cell-based; conditions: Mycoplasmoides gallisepticum
Source text: (§3) Activity against Mycoplasma is another useful aspect of the antimicrobial activity of the deoxynarasin antibiotics. Mycoplasma species, also known as pleuropneumonia-like (PPLO) organisms, are pathogenic to man and various animals. Agents active against PPLO organisms are especially needed by the poultry industry. The minimal inhibitory concentrations (MIC) of 20-deoxy-epi-17-narasin (free acid) against illustrative Mycoplasma species, as determined by in vitro broth-dilution studies, are summarized in Table VI.

[16] = tested on: M. synoviae; assay: in vitro broth-dilution MIC, Mycoplasma; assay type: cell-based; conditions: Mycoplasmopsis synoviae
Source text: as §3

[17] = tested on: M. hyorhinis; assay: in vitro broth-dilution MIC, Mycoplasma; assay type: cell-based; conditions: Mesomycoplasma hyorhinis
Source text: as §3

[18] = tested on: Clostridium perfringens 81; assay: microbe, parasite or virus in culture; assay type: cell-based; conditions: Clostridium perfringens, 81, 24 h
[19] = tested on: Peptococcus prevoti 1281; assay: agar-dilution MIC, anaerobic bacteria; assay type: cell-based; conditions: 24-hour incubation
Description: (§4) In one aspect, the deoxynarasin antibiotics inhibit the growth of anaerobic bacteria. The minimal inhibitory concentrations (MIC) at which 20-deoxy-epi-17-narasin (free acid) inhibits various anaerobic bacteria, determined by standard agar-dilution assay, are summarized in Table V. End points were read after 24-hour incubation period.

[20] = tested on: Actinomyces israelii W855; assay: agar-dilution MIC, anaerobic bacteria; assay type: cell-based; conditions: 24-hour incubation
Description: as §4

[21] = tested on: Bacteroides fragilis 111; assay: agar-dilution MIC, anaerobic bacteria; assay type: cell-based; conditions: 24-hour incubation
Description: as §4

[22] = tested on: Peptostreptococcus intermedius 1264; assay: agar-dilution MIC, anaerobic bacteria; assay type: cell-based; conditions: 24-hour incubation
Description: as §4

[23] = tested on: Clostridium septicum 1128; assay: agar-dilution MIC, anaerobic bacteria; assay type: cell-based; conditions: 24-hour incubation
Description: as §4

[24] = tested on: Peptostreptococcus anaerobius 1428; assay: agar-dilution MIC, anaerobic bacteria; assay type: cell-based; conditions: 24-hour incubation
Description: as §4

[25] = tested on: Eubacterium aerofaciens 1235; assay: agar-dilution MIC, anaerobic bacteria; assay type: cell-based; conditions: Collinsella aerofaciens, 24-hour incubation
Description: as §4

[26] = tested on: Propionibacterium acnes 79; assay: agar-dilution MIC, anaerobic bacteria; assay type: cell-based; conditions: Cutibacterium acnes, 24-hour incubation
Description: as §4

[27] = tested on: Peptococcus asaccharolyticus 1302; assay: agar-dilution MIC, anaerobic bacteria; assay type: cell-based; conditions: Peptoniphilus asaccharolyticus, 24-hour incubation
Description: as §4

[28] = tested on: herpesvirus; assay: in vitro plaque suppression test; assay type: cell-based
Source text: (§5) The deoxynarasin antibiotics are also antiviral agents.

[29] = tested on: influenza A virus; assay: in vitro plaque suppression test; assay type: cell-based
Source text: as §5

[30] = tested on: vacinnia virus; assay: in vitro plaque suppression test; assay type: cell-based
Source text: as §5

[31] = tested on: rhinovirus type 3; assay: in vitro plaque suppression test; assay type: cell-based; conditions: rhinovirus type 3, in vitro
Source text: as §5

CCC(C(=O)O)C1OC(C(C)C(O)C(C)C(=O)C(CC)C2OC3(C=CCC4(CCC(C)(C5CCC(O)(CC)C(C)O5)O4)O3)C(C)CC2C)C(C)CC1C (stereo not drawn) [20-deoxynarasin (Na salt)]
half effective concentration, inhibition of cation transport ATPase [1]: 0.065 µg/mL | activation at 10 µM [2]: 43.8 ± 1.4% | acute toxicity LD50 [3]: 5 mg/kg | minimal effective concentration ([4]; Eimeria tenella, read-out: level at which active against Eimeria tenella (as low as)): 0.2 µg/mL

CCC(C(=O)O)C1OC(C(C)C(O)C(C)C(=O)C(CC)C2OC3(C=CCC4(CCC(C)(C5CCC(O)(CC)C(C)O5)O4)O3)C(C)CC2C)C(C)CC1C (stereo not drawn) [20-deoxynarasin, 20-Deoxynarasin]
% Mortality [5]: 0% | Weight Gain [5]: 185 g | Lesion Score ([5]; maximum possible score = 4.00): 0.13 | solubility in nonpolar organic solvents [6]: only slightly soluble | solubility in organic solvents [6]: soluble | solubility in water [6]: insoluble | Ratio of Treated to Control, Molar % acetate ([7]; dose 0.1 mcg/ml): 0.9504 | Ratio of Treated to Control, Molar % butyrate ([7]; dose 0.1 mcg/ml): 0.6870 | Ratio of Treated to Control, Molar % propionate ([7]; dose 0.1 mcg/ml): 1.2148 | Ratio of Treated to Control, Total VFA ([7]; dose 0.1 mcg/ml): 1.1892 | Ratio of Treated to Control, Molar % acetate ([7]; dose 0.3 mcg/ml): 0.9084 | Ratio of Treated to Control, Molar % butyrate ([7]; dose 0.3 mcg/ml): 0.4582 | Ratio of Treated to Control, Molar % propionate ([7]; dose 0.3 mcg/ml): 1.3799 | Ratio of Treated to Control, Total VFA ([7]; dose 0.3 mcg/ml): 1.1829 | Ratio of Treated to Control, Molar % acetate ([7]; dose 1 mcg/ml): 0.8727 | Ratio of Treated to Control, Molar % butyrate ([7]; dose 1 mcg/ml): 0.3942 | Ratio of Treated to Control, Molar % propionate ([7]; dose 1 mcg/ml): 1.4597 | Ratio of Treated to Control, Total VFA ([7]; dose 1 mcg/ml): 1.2096 | stability in alcohols [8]: unstable

CCC(C(=O)O)C1OC(C(C)C(O)C(C)C(=O)C(CC)C2OC3(C=CCC4(CCC(C)(C5CCC(O)(CC)C(C)O5)O4)O3)C(C)CC2C)C(C)CC1C (stereo not drawn) [20-deoxy-epi-17-narasin]
solubility in nonpolar organic solvents [6]: only slightly soluble | solubility in organic solvents [6]: soluble | solubility in water [6]: insoluble | Ratio of Treated to Control, Molar % acetate ([7]; dose 2 mcg/ml): 0.9581 | Ratio of Treated to Control, Molar % butyrate ([7]; dose 2 mcg/ml): 0.9414 | Ratio of Treated to Control, Molar % propionate ([7]; dose 2 mcg/ml): 1.0858 | Ratio of Treated to Control, Total VFA ([7]; dose 2 mcg/ml): 1.0717 | Ratio of Treated to Control, Molar % acetate ([7]; dose 5 mcg/ml): 0.9237 | Ratio of Treated to Control, Molar % butyrate ([7]; dose 5 mcg/ml): 0.8201 | Ratio of Treated to Control, Molar % propionate ([7]; dose 5 mcg/ml): 1.1836 | Ratio of Treated to Control, Total VFA ([7]; dose 5 mcg/ml): 1.0487 | Ratio of Treated to Control, Molar % acetate ([7]; dose 10 mcg/ml): 0.9093 | Ratio of Treated to Control, Molar % butyrate ([7]; dose 10 mcg/ml): 0.6560 | Ratio of Treated to Control, Molar % propionate ([7]; dose 10 mcg/ml): 1.2665 | Ratio of Treated to Control, Total VFA ([7]; dose 10 mcg/ml): 1.0325 | zone of inhibition at 30 µg/disc ([9]; 30 mcg/disc): 10 mm | zone of inhibition at 300 µg/disc ([9]; 300 mcg/disc): 12 mm | zone of inhibition at 30 µg/disc ([10]; 30 mcg/disc): 17.2 mm | zone of inhibition at 300 µg/disc ([10]; 300 mcg/disc): 19 mm | zone of inhibition at 30 µg/disc ([11]; 30 mcg/disc): 13.8 mm | zone of inhibition at 300 µg/disc ([11]; 300 mcg/disc): 16.9 mm | zone of inhibition at 30 µg/disc ([12]; 30 mcg/disc): 14.6 mm | zone of inhibition at 300 µg/disc ([12]; 300 mcg/disc): 17 mm | zone of inhibition at 30 µg/disc ([13]; 30 mcg/disc): 13 mm | zone of inhibition at 300 µg/disc ([13]; 300 mcg/disc): 16 mm | zone of inhibition at 30 µg/disc ([14]; 30 mcg/disc): 15.4 mm | zone of inhibition at 300 µg/disc ([14]; 300 mcg/disc): 19.5 mm | MIC [15]: 25 µg/mL (≈ 33.4 µM) | MIC [16]: 50 µg/mL (≈ 66.8 µM) | MIC [17]: 50 µg/mL (≈ 66.8 µM) | MIC [18]: 16 µg/mL (≈ 21.4 µM) | acute toxicity LD50 [3]: 201 mg/kg | MIC [19]: 4 µg/mL (≈ 5.34 µM) | MIC [20]: 8 µg/mL (≈ 10.7 µM) | MIC [21]: > 128 µg/mL | MIC [22]: 4 µg/mL (≈ 5.34 µM) | MIC [23]: 16 µg/mL (≈ 21.4 µM) | MIC [24]: 4 µg/mL (≈ 5.34 µM) | MIC [25]: 16 µg/mL (≈ 21.4 µM) | MIC [26]: 2 µg/mL (≈ 2.67 µM) | MIC [27]: 8 µg/mL (≈ 10.7 µM) | level at which active against Eimeria tenella (as low as) [4]: 0.2 ppm | antiviral activity (plaque suppression) [28]: active | antiviral activity (plaque suppression) [29]: active | antiviral activity (plaque suppression) [30]: active | antiviral activity (plaque suppression) [31]: active
